In patent publication US20260309621A1, “HIGH THROUGHPUT OPTICAL ASSAY FOR SCREENING HEMOGLOBIN OXYGEN AFFINITY MODIFYING DRUG” (CASE WESTERN RESERVE UNIVERSITY, priority 2023, published 2026):

What was measured:
[1] = system: HbAA and HbSS whole blood; experiment: pO2 reduction in whole blood by Na2S2O5 (blood gas analyzer); set-up: species or system human
Experimental: All samples were initially exposed to ambient air for 600 seconds. The oxygen partial pressure (pO2), 21% of atmospheric pressure (773 mmHg), was then normalized to 162 mmHg PO2 during oxygenation (FIG. 7A). Sodium metabisulphite (Na2S2O5) was used to deoxygenate the samples chemically (FIG. 7B). Predetermined amounts of sodium metabisulphite were mixed with 2 ml of the prepared samples for 90 seconds using a vortexer (Scientific Industries, Bohemia, NY). The concentrations of Na2S2O5 used with purified hemoglobin were 0.039 M, 0.046 M, 0.053 M, 0.059 M, 0.066 M, 0.079 M, and 0.082 M, which corresponded to a gradual reduction in the oxygen partial pressure in the samples. For whole blood and RBC analyses, we used 0.053 M of Na2S2O (17-fold more molecules than Hb molecules in solution) to achieve partial deoxygenation (Table 1). A blood gas analyzer (Nova Starter Pro, Nova BioMed, Boston, Massachusetts) was used to confirm the deoxygenation levels at those Na2S2O5 concentrations.
We used sodium metabisulphite (Na2S2O5) to deoxygenate purified hemoglobin, intact RBCs, or whole blood (FIGS. 7A & B). […] At elevated concentrations of Na2S2O5, corresponding to high levels of deoxygenation or pO2 close to 30 mmHg, the curve plateaus (FIG. 8).

HbSS patient whole blood = experiment: Peak wavelength shift of whole blood from SCD patients stratified by treatment; set-up: species or system human
Experimental: Blood samples were collected from healthy donors and individuals with SCD as part of standard clinical care. We received ethical approval from the University Hospitals of Cleveland Medical Center's Institutional Review Board (IRB) and Joint Clinical Research Ethics Committee in Kampala, Uganda, for the Naïve SCD group. All participants in the study provided written informed consent. When collected, blood samples were de-identified, kept at 4 degrees Celsius, and processed within 6 hours of receipt. […] Hemoglobin profiles of samples were verified using the reference standard high performance liquid chromatography (HPLC, VARIANT™ II, Bio-Rad Laboratories, Inc., Hercules, California). […] Intracellular hemoglobin concentration for all blood samples was measured under normoxia with complete blood count (CBC, Hemavet 950FS, Hematology System, Draw Scientific Inc.; Miami, Florida).
During testing with either oxygenation or deoxygenation, samples were analyzed in three microplate wells using a spectroscopy microplate reader Spectramax M2e (Molecular Devices, San Jose, CA), over a spectral range of 350-750 nm, with a wavelength resolution of 2 nm and at a customized microplate well reading setting at room temperature. […] (3) For each sample and at concentration of 0.053 M Na2S2O5, the bathochromic wavelength shift and intensity were assessed for further analysis (FIG. 7D). […]

HbSS = biological target: T1, HbSS (Homo sapiens, UniProt P68871+P69905, E7V); experiment: 96-well high throughput optical absorption assay: Soret band peak wavelength shift of deoxygenated SCD samples treated with oxygen modifying molecules; type: biochemical
T1 construct: whole blood, washed red cells or purified hemoglobin
Text: FIGS. 3(A-C) illustrate varying concentration of voxelotor tested using 96 well plates optical assay. (A) Representative 96 well plate, showing the arrangement of a single sample analyzed. […] (B) Insert from the 12 columns of the 96 well plate, showing the Soret band peak wavelength shift in the wavelength range of 380-450 nm.
FIGS. 4(A-B) illustrate increasing the concentration of voxelotor induces a decrease in the peak wavelength of SCD samples (A) Insert from the 12 columns of the 96 well plate, showing the Soret band peak wavelength shift in the wavelength range of 380-450 nm.
FIGS. 5(A-B) illustrate varying concentration of PKR activator tested using 96 well plates optical assay. (A) Insert from the 12 columns of the 96 well plate, showing the Soret band peak wavelength shift in the wavelength range of 380-450 nm.
FIGS. 6(A-B) illustrate varying concentrations of aptamer induce peak wavelength shift. (A) Soret band peak wavelength shifts for oxygenated blood with aptamer deoxygenated blood with aptamer, untreated blood, and voxelotor treatment were compared in the wavelength range of 350-450. Increasing the concentration of aptamer from 0.2 dosages (B) Increasing the concentration of aptamer from 0.2 dosages to 0.25 induces a reduction in peak wavelength from 416 nm to 414 nm.
This example relates to a 96-well high throughput assay optical absorption spectroscopic assay that can be used to assess the rate of oxygen release from hemoglobin.
Whole blood, purified hemoglobin, or washed red blood cells (RBCs) are mixed with a buffer solution at 6.8 or 8. Additional hemoglobin or RBCs to an acidic buffer changes the molecular conformational structure of hemoglobin. Determined volume of the analyte (including but not limited to whole blood, purified hemoglobin, or red blood cells (RBCs)) are mixed with buffer are added to each of the 12/96/384 well plates. The analytes are then chemically deoxygenated with a determined concentration of sodium metabisulphite an approach to deplete oxygen from hemoglobin molecules. The solution is analyzed using a spectroscopic microplate reader. […]

hemoglobin (HbAA, HbSS) = experiment: Hemoglobin-oxygen dissociation assay (Soret band bathochromic shift with partial chemical deoxygenation by Na2S2O5); type: biochemical, human; settings: for Peak wavelength: pH 6.9, pO2 = 75 mmHg, mean ± SEM; for peak wavelength, repeatability: ~20 mmHg pO2, mean ± SEM
Text: Herein, we take advantage of the unique optical shift of Hb's Soret band and combine it with partial chemical deoxygenation to optically measure Hb-O2 dissociation under physiologically acidic conditions at pH 6.9.
Blood samples were collected from healthy donors and individuals with SCD as part of standard clinical care. We received ethical approval from the University Hospitals of Cleveland Medical Center's Institutional Review Board (IRB) and Joint Clinical Research Ethics Committee in Kampala, Uganda, for the Naïve SCD group. All participants in the study provided written informed consent. When collected, blood samples were de-identified, kept at 4 degrees Celsius, and processed within 6 hours of receipt. […] Hemoglobin profiles of samples were verified using the reference standard high performance liquid chromatography (HPLC, VARIANT™ II, Bio-Rad Laboratories, Inc., Hercules, California). The results were presented as a percentage of HbS, A2, and F; the remainder was considered HbA since the values were normalized to 100%. Intracellular hemoglobin concentration for all blood samples was measured under normoxia with complete blood count (CBC, Hemavet 950FS, Hematology System, Draw Scientific Inc.; Miami, Florida).
Three independent sample preparations were performed to test different hypotheses. (1) Whole blood, (2) isolated intact red blood cells (RBC), and (3) purified hemoglobin (lysed samples).
For whole blood preparation, 75 μl of whole blood was mixed with pH 6.9 buffers at a ratio of 1:300 and incubated for 10 minutes at room temperature before deoxygenation.
For intact RBC sample preparation, whole blood was centrifuged at 500 g for 10 minutes in a microcentrifuge (model 21r; Thermo Scientific, Waltham, MA). The plasma and buffy coat were removed via aspiration. The RBCs were washed thrice with phosphate-buffered saline (PBS) at pH 7.4 (Gibco, Thermo Scientific, Waltham, MA). Next, 45 μL of the washed RBC suspension was diluted with a pH 6.9 buffer solution until the baseline hematocrit of 0.2% was achieved. Before deoxygenation, RBCs were incubated for 10 minutes in a pH 6.9 buffer solution at room temperature.
For purified hemoglobin preparation; lysed samples were prepared. Hemolysis was carried out by sonication for 30 seconds (Hemex Health; Portland, OR). Following hemolysis, the lysed cell suspension was added to various pH buffer solutions and centrifuged at 2000 g for 1 hour. Three hundred μl of the cell lysate was removed, and the supernatant was dis-carded. Cell lysates were diluted in 700 μl of the specific pH buffer solution and centrifuged at 2000 g for 1 hour. The 1 ml of pH buffer solution and cell lysate were filtered through a 0.02 μm Millipore membrane. The hemoglobin concentration in the lysed sample was determined using the hemoglobin [COMPOUND LEFT OUT] (HiCN) method and measured with a cuvette spectrophotometer at 540 nm. Each purified lysed sample was diluted with different pH solutions (pH 6.9, 7.2, 7.4, 8.0, and 10.0) to achieve a hemoglobin concentration of 2.8 mg dl^−1, determined as the baseline for lysed sample analysis.

purified hemoglobin = experiment: Circular dichroism spectra of purified hemoglobin at pH 6.9; type: physicochemical, human; settings: purified Hb, pH 6.9, 75 mmHg, deoxy
Text: The circular dichroism (CD) spectra, like the absorption spectra in the Soret and visible range, reveal the molecular structure of the hemoglobin globin and heme groups. […] CD spectra were collected between 190 and 650 nm wavelength on a Jasco J-1500 Spectropolarimeter with a 1 mm quartz cuvette and a scan rate of 4 seconds. The recorded spectra were background subtracted, accounting for a pH 6.9 buffer. The data was baselined and smoothed in the Spectra Manager software (Release 2018; Version 2.15.01).

O=S([O-])S(=O)(=O)[O-].[Na+].[Na+] [Na2S2O5, sodium metabisulfite]
pO2 in whole blood with increased Na2S2O5 concentration ([1]; 0-0.08 M Na2S2O5, 4 minutes, pH 6.9, 7.2, 7.4, 8.0, HbAA and HbSS, n=5, FIG. 8): 20-40 mmHg | deoxygenation of hemoglobin ([1]; 0.053 M Na2S2O5): partial deoxygenation of hemoglobin | pO2 of deoxygenated samples ([1]; 0.053 M Na2S2O5): 75 mmHg | min. pO2 in HbSS whole blood ([1]; 0.053 M Na2S2O5, FIG. 8B): around 10 mmHg

NC(=O)NO [hydroxyurea]
peak wavelength shift differences, oxygenated samples (HbSS patient whole blood; Hu HbSS, oxygenated, FIG. 11C): No significant differences | bathochromic shift differences between HbAA, HbAS and HbSS stratified by treatment (HbSS patient whole blood; hydroxyurea (Hu HbSS=15), deoxygenated 75 mmHg, pH 6.9, FIG. 11C): significant differences

CC(C)n1nccc1-c1ncccc1COc1cccc(O)c1C=O [voxelotor]
difference in peak wavelength shift between deoxy HbSS and deoxy HbSS+Vox (HbSS; 63, 118, 211 and 421 μM Vox, Mann-Whitney, FIG. 4): Significate differences | peak wavelength shift of treated SCD samples compared to untreated SCD samples (HbSS; voxelotor, 3 hours incubation, varying concentrations): reduced peak wavelength shift | effect of increasing concentration on oxygen affinity of HbSS (HbSS; voxelotor, reduction in peak wavelength shift to that of HbAA, FIG. 4): increases the oxygen affinity of HbSS

HbAA: healthy hemoglobin
peak wavelength, fully oxygenated (hemoglobin (HbAA, HbSS); 162 mmHg pO2, all pH values): 414 nm | Peak wavelength (hemoglobin (HbAA, HbSS); RBCs): 418.0 ± 0.56 (n = 15) | peak wavelength, repeatability (hemoglobin (HbAA, HbSS); User1, whole blood): 414.9±0.11 | peak wavelength, repeatability (hemoglobin (HbAA, HbSS); User2, whole blood): 415.1±0.05 | Peak wavelength (hemoglobin (HbAA, HbSS); purified hemoglobin): 417.2 ± 0.78 (n = 23) | area under the peak (hemoglobin (HbAA, HbSS); whole blood, FIG. 10I, pH 6.9, 75 mmHg pO2): 37.2±0.8 | FWHM (hemoglobin (HbAA, HbSS); whole blood, FIG. 10J, pH 6.9, 75 mmHg pO2): 24.3±0.82 | Peak wavelength (hemoglobin (HbAA, HbSS); whole blood): 415.3 ± 0.23 (n = 15) | CD Soret peak, partially deoxygenated (purified hemoglobin): 425 nm

purified Hb: purified hemoglobin (lysed samples)
peak wavelength of purified Hb with increasing Hb concentration (hemoglobin (HbAA, HbSS); purified Hb 0.3-11.2 mg/dl, FIG. 13): 420±0.2
